According to US20250177351A1, “ISOINDOLINE COMPOSITIONS AND METHODS FOR TREATING NEURODEGENERATIVE DISEASE” (Cognition Therapeutics, Inc., priority 2022, published 2025):

Tests used:
[1] = system: CSF biomarkers (Aβ42, Aβ40, total tau, phosphorylated tau, NFL and neurogranin); experiment: Phase 1b/2a trial: CSF Alzheimer's disease biomarkers by ELISA; assay type: in vivo, human; conditions: AD patients, before and after treatment
Procedure: COG0102 clinical trial: This trial (ClinicalTrials.gov NCT02907567) was a randomized, double-blind, placebo-controlled clinical trial in mild to moderate Alzheimer's patients (MMSE 18-26) (See FIG. 1 for clinical trial design). The trial was conducted at six sites in Australia. Patients were randomized into placebo (n=5) or CT1812-treated groups: 90 mg (n=4), 280 mg (n=5) or 560 mg (n=5) and treated once daily for 28 days. Clinical chemistry was done at Sydpath (Sydney, AU). Pharmacokinetics were done at CPR Pharma Services (Adelaide, AU). Cerebrospinal fluid samples were taken at screening and day 21-28 of treatment and aliquoted. […] One set of CSF samples was analyzed for Alzheimer's disease biomarkers; protein measurements (Aβ42, Aβ40, total tau, tau phosphorylated at threonine 181 (phosphorylated tau), NFL and neurogranin) were performed using commercially available ELISA assays from Fujirebio according to the manufacturer's instructions (INNOTEST β-AMYLOID(1-42), INNOTEST β-AMYLOID(1-40), INNOTEST hTau Ag, INNOTEST PHOSPHO-TAU(181P), Uman Diagnostics NFL assay). Neurogranin was measured with a sandwich ELISA method using antibodies Ng2 and Ng22 developed at the University of Gotteborg (Kvartsberg et al. 2015). Identical aliquots of CSF, and plasma were analyzed for protein expression changes via LC/MSMS at Caprion (see below).

CSF proteins [2] = experiment: CSF proteomics by tandem-mass tag mass spectrometry (TMT-MS), SPARC trial; assay type: in vivo, human
Text: A stringent filter was used to reduce noise. […] Samples were acquired from placebo and the drug and interventional cohort. Using biomarker differential-expression analysis, proteins that were differentially expressed between drug and placebo cohorts were identified (p<0.05).

sigma-2 receptor complex = target: T1, sigma-2 receptor complex (Mus musculus, UniProt Q8VD00); experiment: Projected receptor occupancy from human CSF concentrations, based on mouse Alzheimer's disease models; assay type: in vivo
T1 construct: from tissue; host or cells: brain, in vivo (projection from human CSF concentrations; occupancy itself determined in transgenic mouse brain)
T1 sequence (Q8VD00 1-176): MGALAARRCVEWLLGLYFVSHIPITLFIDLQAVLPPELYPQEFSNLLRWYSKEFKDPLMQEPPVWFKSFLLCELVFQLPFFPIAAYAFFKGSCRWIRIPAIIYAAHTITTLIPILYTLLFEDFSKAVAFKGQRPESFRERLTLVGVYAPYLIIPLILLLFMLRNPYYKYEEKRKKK
Procedure: Horizontal lines indicate projected receptor occupancy based on concentration and receptor occupancy determined in pre-clinical mouse Alzheimer's disease models.
At the 840 mg dose, CSF levels reached those associated with 98% receptor occupancy.

CSF proteins [3] = experiment: Phase 1b/2a trial: CSF protein expression by LC/MSMS; assay type: in vivo, human
Procedure: COG0102 clinical trial: This trial (ClinicalTrials.gov NCT02907567) was a randomized, double-blind, placebo-controlled clinical trial in mild to moderate Alzheimer's patients (MMSE 18-26) (See FIG. 1 for clinical trial design). The trial was conducted at six sites in Australia. Patients were randomized into placebo (n=5) or CT1812-treated groups: 90 mg (n=4), 280 mg (n=5) or 560 mg (n=5) and treated once daily for 28 days. Clinical chemistry was done at Sydpath (Sydney, AU). Pharmacokinetics were done at CPR Pharma Services (Adelaide, AU). Cerebrospinal fluid samples were taken at screening and day 21-28 of treatment and aliquoted. Plasma samples were taken at screening or Day 1 (one sample) and day 14-28, then spun down to separate plasma and aliquoted. One set of CSF samples was analyzed for Alzheimer's disease biomarkers; protein measurements (Aβ42, Aβ40, total tau, tau phosphorylated at threonine 181 (phosphorylated tau), NFL and neurogranin) were performed using commercially available ELISA assays from Fujirebio according to the manufacturer's instructions (INNOTEST β-AMYLOID(1-42), INNOTEST β-AMYLOID(1-40), INNOTEST hTau Ag, INNOTEST PHOSPHO-TAU(181P), Uman Diagnostics NFL assay). Neurogranin was measured with a sandwich ELISA method using antibodies Ng2 and Ng22 developed at the University of Gotteborg (Kvartsberg et al. 2015). Identical aliquots of CSF, and plasma were analyzed for protein expression changes via LC/MSMS at Caprion (see below).
LC MSMS biomarker discovery: Matched screening and day 28 plasma and CSF samples were analyzed by LC/MSMS at Caprion Biosciences Inc. Plasma was depleted of high and medium abundance proteins using a commercial immunoaffinity column, IgY14-Supermix (Sigma). CSF was depleted of only 14 high abundance proteins using MARS-14 (Agilent). All samples were digested with trypsin and plasma samples were fractionated by strong cation exchange chromatography (3 fractions). Both CSF and plasma samples were analyzed using a NanoAcquity UPLC coupled to a Q Exactive MS. […] The 12 most intense peaks per survey scan with charge states 2-8 fragmented and scanned with a mass range from 200 to 2000 m/z at a resolution of 17,500. Raw spectrometer data files for each LC-MS run were aligned independently using Elucidator software (Rosetta Biosoftware). The MS/MS spectra were matched to corresponding peptide sequences found in the Uniprot Human protein database (January 2017) using Mascot software, allowing for up to 2 missed cleavages, a peptide tolerance of 20 ppm, and an MS/MS tolerance of 0.05 Da. Outlier detection was performed by determining the average log-intensity of all isotope groups (IG) over injection order for all samples. Samples with an average value greater than 2 standard deviations from the mean were flagged for investigation. Following data transformation and normalization, expression analysis of the identified isotope groups was performed and the statistical significance of each comparison was assessed with a parametric, linear mixed model (LMM) and a non-parametric Wilcoxon ranked test (ranked p-values). Expression analysis was also performed at the peptide and protein levels, which used the same methodology as above, but applied to peptide/protein intensities, derived by rolling-up the corresponding isotope group intensities. Isotope groups not detected in at least half of the samples in either of the two groups being compared were not used for the roll-up.
Heat map analysis: The difference in protein abundance between day 28 and baseline for each sample was normalized for graphical comparison by converting to z-score. First, the mean and standard deviation (SD) of day 28—baseline values were calculated across all paired samples for each protein. Then, for each patient's paired sample fold change, the difference from the mean was determined and divided by the SD to derive the z-score. […]

[4] = Aged transgenic mouse models of AD; assay type: in vivo
[5] = AD patients treated at least 6 months, p<0.05

## CC(C)(C)Oc1cc(CCC(C)(C)N2Cc3ccc(S(C)(=O)=O)cc3C2)ccc1O [CT1812]
[1]
  biomarker levels (Aβ, tau, NFL) in CSF: remain unchanged
CSF proteins [2]; [5]
  CHI3L1 (YKL-40) in CSF vs placebo: significantly decreased
  CLU (clusterin) in CSF vs placebo: significantly decreased
  SMOC1 in CSF vs placebo: significantly decreased
CSF proteins [2]; N=18, p<0.05
  number of significantly abundant proteins in CSF, CT1812 vs placebo: 326
sigma-2 receptor complex; 560 mg dose, read-out: receptor occupancy in transgenic mouse brain associated with human CSF level
  receptor occupancy at 560 mg: 95%
sigma-2 receptor complex; 560 mg-840 mg dose range, 1.5 hr post-dose
  receptor occupancy in mouse brain equivalent to average human CSF concentrations: 97-98%
sigma-2 receptor complex; 840 mg dose, read-out: receptor occupancy associated with human CSF level
  receptor occupancy at 840 mg: 98%
CSF proteins [3]; AD patients, 28 days
  Synaptotagmin-1 expression in CSF, decrease in CT1812-treated vs. placebo: 63%
CSF proteins [3]; AD patients, 28 days, p<0.05
  number of CSF proteins changed differentially vs placebo: 30
CSF proteins [3]; CSF, 28 days vs screening
  FC (Treated) AFM: 0.94
  FC (Treated) ANGPTL2: 0.80
  FC (Treated) CNTN1: 0.97
  FC (Treated) EFNB1: 0.97
  FC (Treated) EPHA4: 0.94
  FC (Treated) MBL2: 0.75
  FC (Treated) NPPC: 0.90
  FC (Treated) P4HB: 1.10
  FC (Treated) RBP4: 0.82
  FC (Treated) ROBO1: 0.96
  FC (Treated) SEMA3F: 1.40
  FC (Treated) SERPINA4: 0.88
  FC (Treated) SMPDL3B: 0.97
  FC (Treated) SYT1: 0.78
  FC (Treated) TPII: 0.90
  FC (Treated) YWHAB: 0.90
CSF proteins [3]; CSF, 28 days, p-value 0.002, rank p-value 0.003
  FC (Treated vs. Placebo) AFM: 0.84
CSF proteins [3]; CSF, 28 days, p-value 0.011, rank p-value 0.011
  FC (Treated vs. Placebo) SYT1: 0.63
CSF proteins [3]; CSF, 28 days, p-value 0.018, rank p-value 0.011
  FC (Treated vs. Placebo) RBP4: 0.81
CSF proteins [3]; CSF, 28 days, p-value 0.020, rank p-value 0.006, FC>10 may be artifact
  FC (Treated vs. Placebo) MBL2: >10
CSF proteins [3]; CSF, 28 days, p-value 0.029, rank p-value 0.011
  FC (Treated vs. Placebo) TNC: 0.91
CSF proteins [3]; CSF, 28 days, p-value 0.029, rank p-value 0.034
  FC (Treated vs. Placebo) EFNB1: 0.93
CSF proteins [3]; CSF, 28 days, p-value 0.035, rank p-value 0.076
  FC (Treated vs. Placebo) EPHA4: 0.93
CSF proteins [3]; CSF, 28 days, p-value 0.036, rank p-value 0.106
  FC (Treated vs. Placebo) MDGA2: 0.71
CSF proteins [3]; CSF, 28 days, p-value 0.038, rank p-value 0.148
  FC (Treated vs. Placebo) YWHAB: 0.81
CSF proteins [3]; CSF, 28 days, p-value 0.042, rank p-value 0.106
  FC (Treated vs. Placebo) ROBO1: 0.82
CSF proteins [3]; CSF, 28 days, p-value 0.044, rank p-value 0.076
  FC (Treated vs. Placebo) TPII: 0.87
CSF proteins [3]; CSF, 28 days, p-value 0.046, rank p-value 0.034
  FC (Treated vs. Placebo) CD14: 1.20
CSF proteins [3]; CSF, 28 days, p-value 0.047, rank p-value 0.020
  FC (Treated vs. Placebo) SERPINA4: 0.79
CSF proteins [3]; CSF, 28 days, p-value 0.048, rank p-value 0.076
  FC (Treated vs. Placebo) CNTN1: 0.81
CSF proteins [3]; CSF, 28 days, p-value 0.050, rank p-value 0.148
  FC (Treated vs. Placebo) ANGPTL2: 0.69
CSF proteins [3]; CSF, 28 days, p-value 0.060, rank p-value 0.020
  FC (Treated vs. Placebo) NPPC: 0.91
[4]; aged transgenic mouse models of AD
  cognitive performance: restoring normal cognitive performance
[4]; chronic treatment of aged transgenic mice, efficacious doses, LC/MSMS
  inflammatory protein expression in CSF: significantly reduces
